| Structure (SMILES) | melting point [°C] |
| --- | --- |
| CCOC(=O)c1cc2c(Cl)ncnc2[nH]1 | 219 to 221 |
| CCOC(=O)[C@H](Cc1ccc(OC)cc1)NC(=O)C1(NC(=O)OC(C)(C)C)CCCC1 | 143 to 146 |
| CCCc1c(OCCCCCCC2(C)CC(=O)c3ccc(OCC(=O)O)c(CCC)c3O2)ccc(C(C)=O)c1O (stereo unspecified) | 120 to 125 |
| CCC(=O)N(C)c1ccc(C(=O)C=CN(C)C)cc1 | 76 to 78 |
| Cc1cc(CCCCCOc2c(C)cc(-c3noc(C)n3)cc2C)on1 | 45 to 46 |
| CC#CCOc1cc(Oc2ccc(F)c(C(F)(F)F)c2)ncn1 | 90.1 |
| CCCc1ccnc2c(=O)[nH]c(-c3cc(S(=O)(=O)N4CCC(C(=O)O)CC4)ccc3OCC)nc12 | 262 to 264 |
| O=C1C2CC=CCN2C(=O)N1c1cc(O)c(Cl)cc1F (stereo unspecified) | 195 to 197 |
| C[C@@H]1N=C(c2ccccc2Cl)c2c(ccc(N)c2Br)N(C)C1=O | 243 |
| CCCC(C)(C)NC(=O)n1nc(C)n(N)c1=O | 110 |
| CN1CCNC1=C[N+](=O)[O-] | 142 to 144 |
| CC(=O)c1ccc(=O)[nH]c1C=CN(C)C | 238 to 240 |
| COC(=O)COc1cc2c(c3c1c(C(=O)C(N)=O)c(C)n3Cc1cccc(F)c1)CCC2 | 142 to 144 |
| CC(C)=CCCC(C)=CCCC(C)=CC=CC(C)=CC(=O)N(C)C | 39 to 39.5 |
| CCOC(=O)C1=Cc2c3c(c(C(=O)OCC)cc2=N1)=Nc1cnccc1-3 | 198 to 201 |
| N#Cc1cccc2[nH]ccc12 | 115 to 116 |
| O=C(O)c1ccc(OC(F)(F)F)c([N+](=O)[O-])c1 | 137 to 139 |
| CCOC(=O)C1C=Nc2c(cc(F)cc2[N+](=O)[O-])C1=O (stereo unspecified) | 278 to 280 |
| CC(C)c1cc(Oc2c(Cl)cc(CP(=O)(O)O)cc2Cl)ccc1O | 178 to 181 |
| N=C(N)c1ccc2cc(OC(=O)CCCC3CCCCC3)ccc2c1 | 189 to 193 |
| CCOC(=O)c1cc2ccc(C)cc2o1 | 35 to 42 |
| Nc1nc(=O)n(CCCCn2cncn2)cc1F | 197 to 200 |

| Structure (SMILES) | melting point [°C] |
| --- | --- |
| CCN(CC)C(=O)n1cnc(S(=O)(=O)C(F)(F)Br)n1 | 74 to 75 |
| CCCCc1nc(N)c(C#N)[nH]1 | 115 to 116 |
| CCOC(=O)c1cn(Cc2cnsn2)c2cc(F)c(F)cc2c1=O | 198 to 201 |
| C#CCN1CCCNC1=C[N+](=O)[O-] | 157 to 158 |
| Nc1cc(Cl)cc(Cc2cc(Cl)cc(N)c2O)c1O | 212 to 215 |
| CC1(C)Oc2cc3nonc3cc2C(N2CC(O)CCC2=O)C1O (stereo unspecified) | 178 to 182 |
| CN1C(=O)C(S)=C(S)C1=O | 145 to 148 |
| CNc1nc(Br)cnc1N | 121 |
| CCOC(=O)c1cccn2cc(C(C)(C)C)nc12 | 72 to 74 |
| COc1cc(N)cc(C#N)c1 | 81 to 85 |
| O=Cc1cc(N2C(=O)C3=C(CCCC3)C2=O)ccc1Cl | 140 to 141 |
| CCOC(=O)C1=Cc2cc(Cl)c(O)cc2OC1C(F)(F)F (stereo unspecified) | 118 to 125 |
| CNC(=O)N(Cc1ccc(C(C)(C)C)cc1)NC(=O)OC(C)(C)C | 124 to 129 |
| N=C(Nc1ccc2c(c1)C1CCCN1CC2)c1cccs1 (stereo unspecified) | 193 to 196 |
| COC(=O)c1nc(Cl)n2c1CN=C(c1ccccc1Cl)c1cc(Cl)ccc1-2 | 200 to 202 |
| Cn1ccc(C(Cl)Cl)n1 | 38.5 to 40 |
| CCS(=O)(=O)ON=C(C#N)c1ccc(OC)cc1 | 102 |
| CC12C=CC(=O)C=C1CCC1C2CCC2(C)C1CCC21CC(=O)CO1 (stereo unspecified) | 147 to 153 |
| COC(=O)c1cccc(C)c1/C=C/Cc1c(OC)c(C)c2c(c1OC(C)=O)C(=O)OC2 | 104 to 111 |
| Cc1cccc2c1N(CCN(C(C)C)C(C)C)C(=O)C2=O | 92 to 93 |
| COc1cc(/C=C/C(=O)/C=C/c2cc(OC)c(OCCN=[N+]=[N-])c(OC)c2)cc(OC)c1OCCN=[N+]=[N-] | 107 to 109 |

Second part, the molecule after the results:

| melting point [°C] | Structure (SMILES) |
| --- | --- |
| 197 to 199 | CC(=O)On1cc(-c2ccccc2)c(=O)c(-c2ccccc2)c1 |
| 118 to 119 | CC(c1ccc(Oc2ccccc2)cc1)N(O)C(N)=O (stereo unspecified) |
| 258 to 259 | CCCOc1ccccc1-c1nc2nc(N(C)C)nnc2c(=O)[nH]1 |
| 174 to 176 | Fc1c(Cl)cccc1COc1cccnc1NC(=S)Nc1ccc(Cl)cc1 |
| 178 | Cc1ccc(-c2ccc3c(c2)CC[C@H]2N(C)C(=O)CC[C@]32C)cc1 |
| 96 to 102 | CCOC(=O)c1c[nH]c(C2CCN(CCC(CN(C)C(=O)c3ccccc3)c3ccc(Cl)c(Cl)c3)CC2)n1 (stereo unspecified) |
| 166 to 167 | COc1ccc2c(c1)c(CC(=O)OCC(=O)O)c(C)n2C(=O)c1ccc(C(F)(F)F)cc1 |
| 120 to 122 | CCCCC(C)(CC)C(O)C(Oc1ccc(-c2ccccc2)cc1)n1cncn1 (stereo unspecified) |
| > 240 | Cc1cc(F)c(N)cc1-n1cc(C(=O)O)c(=O)c2cc(F)c(N)c(C)c21 |
| 148 to 151 | Cc1cccc(C2(CNC(=O)Nc3c(C(C)C)cccc3C(C)C)CCC2)c1 |
| 156 to 158 | O=C(Cc1cccc(C(F)(F)F)c1)NCc1cccc2c1C(=O)N(C1CCC(=O)NC1=O)C2=O (stereo unspecified) |
| 123 | CN1CC[C@@H](c2cc(Cl)ccc2O)[C@@H]1c1ccccc1I (relative stereo) |
| 130 to 132 | CC(C)(CO)C(=O)N(O)Cc1ccccc1Cl |
| 124 to 126 | CCCCc1nn(-c2cc([N+](=O)[O-])ccc2Cl)c(=O)n1Cc1ccc(-c2ccccc2S(=O)(=O)NC(C)(C)C)cc1F |
| 116 to 118 | COC(=O)c1cc(N)cc(-n2cccc2)c1 |
| 257 | COc1cc(C(=O)c2ncc3ccc(NC(C)=O)cn23)ccc1[N+](=O)[O-] |
| 60 to 67 | COC(=O)Cc1ccc(CNC(=O)C2Cc3ccccc3N2S(=O)(=O)c2ccc(-c3cccc(C(F)(F)F)c3)cc2)cc1C (stereo unspecified) |
| 234 to 236 | CC(=O)c1ccc(Nc2nnc(Cc3ccncc3)c3ccccc23)cc1O |
| 200 to 202 | CC(=O)Nc1cccc(-n2c(=O)c(CCCc3ccncc3)cc3cccnc32)c1 |
| 95 to 100 | Nc1ncccc1OCc1ccccc1Cl |

| melting point [°C] | Structure (SMILES) |
| --- | --- |
| 128 to 129 | COC(=O)Cc1ccc2nc(Nc3ccccc3C)oc2c1 |
| 210 to 212 | N#CC(C(=O)Nc1cccc(C(F)(F)F)c1)C(=O)c1ccc[nH]1 (stereo unspecified) |
| 217 to 220 | CNc1nc2ccccc2n(-c2ccc(Cl)cc2)c1=O |
| 38 to 42.8 | Cc1cccnc1-c1ccc(Cl)cc1Cl |
| 150 to 151 | O=C1c2cc(O)ccc2OCC1Cc1ccccn1 (stereo unspecified) |
| 83 to 85 | CCCC(O)C1(CCC)c2ccccc2-c2ccccc21 (stereo unspecified) |
| 248 to 250 | CCOC(=O)c1cccc2nc(CNC)n(Cc3ccc(-c4ccccc4-c4nnn[nH]4)cc3)c12 |
| 191 to 193 | CCOC(=O)c1[nH]c2ccc(Cl)cc2c1-c1ccccc1F |
| 162 to 164 | CCn1cc(CS(C)(=O)=O)c(=O)c2ccccc21 |
| 132 to 138 | CC(=O)N(c1ccccn1)c1ncc(Br)s1 |
| 185 to 186 | N#CNC(=O)[C@@H]1CCC(=O)N1C(=O)OCc1ccccc1 |
| 195 to 196 | CS(=O)(=O)c1ccc(-n2cccc2-c2ccc(F)cc2)cc1 |
| 160 to 161 | CN1NC(=O)CC1c1ccccc1 (stereo unspecified) |
| 181 | Cc1cccc(NC(=O)NCC(=O)N(c2ccccc2)C(C(=O)OC(C)(C)C)c2ccccc2Cl)c1 (racemic) |
| 165 to 167 | Cc1nc2c(-c3cccc(N4C[C@@H](C)O[C@@H](C)C4)c3)cnn2c(N)c1-c1cccc(Cl)c1 |
| 190 to 191 | O=S(=O)(Nc1cccc(Oc2cccc3cccnc23)c1)c1ccc(Cl)cc1 |
| 81.5 to 84 | O=C(O)CCCCCCCCCCn1nc(-c2ccccc2)c(-c2ccccc2)c1-c1ccccc1 |
| 236 to 237 | O=C(Nc1c[nH]nc1C(=O)Nc1cccc(C(F)(F)F)c1)c1ccccn1 |
| 122 to 123 | COC(=O)C(=O)c1ccc(OCCOc2ccc([N+](=O)[O-])cc2)cc1 |
| 145 to 147 | CCCCc1nc2cccc(C(=O)OCCO)c2n1Cc1ccc(-c2ccccc2-c2nnn[nH]2)cc1 |

| melting point [°C] | Structure (SMILES) |
| --- | --- |
| 127 to 129 | CCOCc1nc2c(N(Cc3ccccc3)Cc3ccccc3)nc(Cl)c(C)c2n1N |
| 214 to 216 | O=C(NO)c1ccc(CNC(=O)c2[nH]c(-c3cccs3)cc2-c2ccc(F)cc2)cc1 |
| 53 to 59 | CC(C)C[C@H](NS(=O)(=O)c1ccccc1)C(=O)NC(C)(C)C(=O)c1c(-c2ccccc2)c1=O |
| 119 | COC(=O)CCCc1cc2nc(Cl)ccc2n1S(=O)(=O)c1ccc(F)cc1 |
| 165 to 167 | CCCc1nn(C)c2c(=O)[nH]c(-c3cc(CCC(=O)O)ccc3OCC)nc12 |
| 169 to 170 | CC(=O)n1c(=O)n(-c2ccccc2)c(=O)n1C(C)=O |
| 107 to 111 | C[C@@H](NC(=O)c1sc(-c2ccc(Cl)cc2)cc1N)[C@](O)(Cn1cncn1)c1ccc(F)cc1F |
| 111 to 112 | Nc1nc(Cl)c2ncn(COCCOCCOC(=O)c3ccccc3)c2n1 |
| 238 to 244 | CN1CCC(N(C)C(=O)c2ccc(Nc3nccc(Nc4ccc(C(F)(F)F)cc4)n3)cc2)CC1 |
| 142 to 146 | O=S(=O)(c1ccccc1)c1ccc(NN=C2CCCN(Cc3ccccc3)CC2)cc1 |
| 145 to 146 | COc1ccc(COC2CCCn3c2c(-c2ccccc2)c2cc(C)c(C)cc2c3=O)cc1 (stereo unspecified) |
| 207 to 209 | C#CC1N(C(=O)Oc2ccccc2)c2ccc(OCc3ccccc3[N+](=O)[O-])cc2C23OC12CCCC3O (stereo unspecified) |
| 133 to 135 | COC(=O)c1ccc(Cn2ccn(C3CCc4ccccc4C3)c2=S)cc1 (stereo unspecified) |
| 106 to 107 | CC(ON=Cc1c(F)cccc1Cl)C(=O)O (stereo unspecified) |
| > 300 | O=C1NCCn2c1c(-c1ccccc1)c1ccccc1c2=O |
| 218 to 219 | CN1CCN(c2cc(NC(=O)c3ccc(-c4ccncc4)cc3)ccc2Cl)CC1 |
| 117 to 118 | CCN(CC)C(=O)c1cc(S(=O)(=O)Cc2ccccc2)c(N2CCC(c3ccccc3)CC2)cc1N(CC)CCN(C)C |
| 249 to 251 | CCOC(=O)c1cnn(C)c1C(=O)Nc1ccn2nc(-c3cccnc3F)nc2c1 |

— a melting point compilation (Tetko et al.; mined from patent text by program, amines drawn as free bases though some values may be those of a salt)
